Data set [1] deals with colorectal cancer cell line HCT116. Description: cells. It is filed as cell-based. The method, then: (§1) To confirm the in vitro growth inhibitory efficacy of the samples prepared in Examples 1 to 28 against human lung cancer and colorectal cancer cell lines, the experiments were performed as follows by applying the method described in the literature (Lee S K et al ([…]) Chem Biol Interact 115:215-28). A human lung cancer cell line A549 and a colorectal cancer cell line HCT116 were acquired from the American Type Culture Collection (ATCC, Manassas, Va., USA) and used.
(§2) A549, HCT116 cells were subcultured once or twice weekly under conditions of 37° C. and 5% CO2 using Roswell Park Memorial Institute (RPMI) Medium 1640 (RPMI 1640) containing 10% heat-inactivated Fetal Bovine Serum (FBS), 100 units/mL penicillin, 100 μg/mL streptomycin, and 250 ng/mL amphotericin B. All cells were thawed from liquid nitrogen, subcultured three times or more, and then used in the experiment.
(§3) The effects of the compounds obtained in Examples 1 to 28 on cell growth were measured by a sulforhodamine B (SRB) method (Lee et al (1998) Chem Biol Interact 115: 215-28).
(§4) Specifically, the human lung cancer and colon cancer cell lines used in the present invention were subcultured in a RPMI medium containing 10% FBS, 1% PSF, and the like, 10 μl of a sample dissolved in 10% DMSO and 190 μl (5×10^4 cells/ml) of the cell suspension were placed in each well of a 96-well plate. 190 μl of the cell suspension was placed in at least 16 wells, cultured for 30 minutes, and used as a negative control (zero-day control) before the experiment. The cultured cells were fixed with 10% trichloroacetic acid (TCA) and then stained with an SRB solution, the staining solution was dissolved with 10 mM Tris-base, and absorbance was measured at 515 nm. Using the cell culture in 10% DMSO as a control, cell viability according to the treatment with each test sample was measured using the following Equation 1. % Cell viability=(OD(sample)−OD(0-day))/(OD(10% DMSO)−OD(0-day))×100 [Equation 1]
(§5) When the control in which the sample was not treated was defined as 100%, the value of the sample treatment group was shown as a percentage with respect to the control, and each test sample treatment was determined by the mean value±SEM of the duplicate or triplicate test. The IC50 value is the concentration of the test sample for 50% viability.

Data set [2] deals with human lung cancer cell line A549. Description: cells. In kind it is cell-based. The method, then: as §1, §2, §3, §4, §5
The mark [3] stands for this setting: Homo sapiens, HCT-116, read-out: HCT116-LC50, Table 3, SRB, concentration for 50% viability.
The mark [4] stands for this setting: Homo sapiens, A549, read-out: A549-LC50, Table 3, SRB, concentration for 50% viability.
[5] abbreviates: Homo sapiens, HCT-116, read-out: HCT116-LC50.
Setting [6] is: Homo sapiens, A549, read-out: A549-LC50.
[7] abbreviates: Homo sapiens, HCT-116, read-out: HCT116-LC50, Table 2, SRB, concentration for 50% viability.
[8] abbreviates: Homo sapiens, A549, read-out: A549-LC50, Table 2, SRB, concentration for 50% viability.

Structures are written as SMILES. Like-named read-outs stand apart in the source and are kept apart here.

As for `O=C(NCC[Se]Sc1ccccc1)/C(Cc1ccc(Br)cc1)=N/O` [SSM-21, (E)-3-(4-bromophenyl)-2-(hydroxyimino)-N-(2-((phenylthio)selanyl)ethyl)propanamide], the CC50 in data set [1] (setting [3]) was 180 nM; in data set [2] (setting [4]) it was 510 nM.

Regarding `O=C(NCC[Se]Sc1ccccc1)/C(Cc1ccc(O)c(Cl)c1)=N/O` [SSM-16, (E)-3-(3-chloro-4-hydroxyphenyl)-2-(hydroxyimino)-N-(2-((phenylthio)selanyl)ethyl)propanamide], the figures for the CC50 in data set [1] (setting [3]) and in data set [2] (setting [4]) were 90 nM and 110 nM, respectively.

As to `O=C(NCC[Se]Sc1ccccc1)/C(Cc1ccc(F)cc1)=N/O` [SSM-19, (E)-3-(4-fluorophenyl)-2-(hydroxyimino)-N-(2-((phenylthio)selanyl)ethyl)propanamide], the CC50 in data set [1] (setting [3]) came to 330 nM; in data set [2] (setting [4]), 490 nM.

In the case of `O=C(NCC[Se][Se]CCNC(=O)/C(Cc1ccc(F)c(F)c1)=N/O)/C(Cc1ccc(F)c(F)c1)=N/O` [SSM-8, (2E,2′E)-N,N′-(diselanediylbis(ethane-2,1-diyl))bis(3-(3,4-difluorophenyl)-2-(hydroxyimino)propanamide)], the CC50 in data set [1] (setting [5]) is 190 nM; in data set [2] (setting [6]), 200 nM.

For the molecule `O=C(NCC[Se][Se]CCNC(=O)/C(Cc1ccc(F)cc1)=N/O)/C(Cc1ccc(F)cc1)=N/O` [SSM-5, (2E,2′E)-N,N′-(diselanediylbis(ethane-2,1-diyl))bis(3-(4-fluorophenyl)-2-(hydroxyimino)propanamide)], the CC50 in data set [1] (setting [7]) was determined as 110 nM; in data set [2] (setting [8]), 100 nM.

As for `O=C(NCC[Se][Se]CCNC(=O)/C(Cc1ccc2ccccc2c1)=N/O)/C(Cc1ccc2ccccc2c1)=N/O` [SSM-14, (2E,2′E)-N,N′-(diselanediylbis(ethane-2,1-diyl))bis(2-(hydroxyimino)-3-(naphthalen-2-yl)propanamide)], the CC50 is 120 nM in data set [1] (setting [7]) and 380 nM in data set [2] (setting [8]).

Turning to `CCOc1ccc(C/C(=N\O)C(=O)NCC[Se]Sc2ccccc2)cc1` [SSM-24, (E)-3-(4-ethoxyphenyl)-2-(hydroxyimino)-N-(2-((phenylthio)selanyl)ethyl)propanamide], the figures for the CC50 in data set [1] (setting [3]) and in data set [2] (setting [4]) were 130 nM and 330 nM, respectively.

`O=C(NCC[Se]Sc1ccccc1)/C(Cc1ccc([N+](=O)[O-])cc1)=N/O` [SSM-26, (E)-2-(hydroxyimino)-3-(4-nitrophenyl)-N-(2-((phenylthio)selanyl)ethyl)propanamide]: the CC50 in data set [1] (setting [5]) and in data set [2] (setting [6]) was 120 nM throughout.

As to `O=C(NCC[Se][Se]CCNC(=O)/C(Cc1ccc(Cl)c(Cl)c1)=N/O)/C(Cc1ccc(Cl)c(Cl)c1)=N/O` [SSM-9, (2E,2′E)-N,N′-(diselanediylbis(ethane-2,1-diyl))bis(3-(3,4-dichlorophenyl)-2-(hydroxyimino)propanamide)], the CC50 amounted to 520 nM in data set [1] (setting [5]) and 280 nM in data set [2] (setting [6]).

For the molecule `O=C(NCC[Se]Sc1ccccc1)/C(Cc1ccccc1)=N/O` [SSM-18, (E)-2-(hydroxyimino)-3-phenyl-N-(2-((phenylthio)selanyl)ethyl)propanamide], the values for the CC50 in data set [1] (setting [3]) and in data set [2] (setting [4]) were 130 nM and 280 nM, respectively.

As to `O=C(NCC[Se]Sc1ccccc1)/C(Cc1ccc(Cl)cc1)=N/O` [SSM-20, (E)-3-(4-chlorophenyl)-2-(hydroxyimino)-N-(2-((phenylthio)selanyl)ethyl)propanamide], the results for the CC50 in data set [1] (setting [5]) and in data set [2] (setting [6]) were 330 nM and 490 nM, respectively.

For the molecule `O=C(NCC[Se]Sc1ccccc1)/C(Cc1ccc(O)c(F)c1)=N/O` [SSM-17, (E)-3-(3-fluoro-4-hydroxyphenyl)-2-(hydroxyimino)-N-(2-((phenylthio)selanyl)ethyl)propanamide], the CC50 in data set [1] (setting [3]) came out at 200 nM; in data set [2] (setting [4]) it was 290 nM.

Consider `O=C(NCC[Se]Sc1ccccc1)/C(Cc1ccc(OCc2ccccc2)cc1)=N/O` [SSM-25, (E)-3-(4-(benzyloxy)phenyl)-2-(hydroxyimino)-N-(2-((phenylthio)selanyl)ethyl)propanamide], for which the figures for the CC50 in data set [1] (setting [3]) and in data set [2] (setting [4]) were 80 nM and 180 nM, respectively.

As to `O=C(NCC[Se]Sc1ccccc1)/C(Cc1ccc2ccccc2c1)=N/O` [SSM-28, (E)-2-(hydroxyimino)-3-(naphthalen-2-yl)-N-(2-((phenylthio)selanyl)ethyl)propanamide], the CC50 worked out at 20 nM in data set [1] (setting [3]) and 120 nM in data set [2] (setting [4]).

For the molecule `O=C(NCC[Se][Se]CCNC(=O)/C(Cc1ccc(Cl)cc1)=N/O)/C(Cc1ccc(Cl)cc1)=N/O` [SSM-6, (2E,2′E)-N,N′-(diselanediylbis(ethane-2,1-diyl))bis(3-(4-chlorophenyl)-2-(hydroxyimino)propanamide)], the CC50 came to 280 nM in data set [1] (setting [5]) and 250 nM in data set [2] (setting [6]).

`O=C(NCC[Se]Sc1ccccc1)/C(Cc1ccc(F)c(F)c1)=N/O` [SSM-22, (E)-3-(3,4-difluorophenyl)-2-(hydroxyimino)-N-(2-((phenylthio)selanyl)ethyl)propanamide]: the CC50 came out at 310 nM in data set [1] (setting [5]) and 480 nM in data set [2] (setting [6]).

With `O=C(NCC[Se][Se]CCNC(=O)/C(Cc1ccc(OCc2ccccc2)cc1)=N/O)/C(Cc1ccc(OCc2ccccc2)cc1)=N/O` [SSM-11, (2E,2′E)-N,N′-(diselanediylbis(ethane-2,1-diyl))bis(3-(4-(benzyloxy)phenyl)-2-(hydroxyimino)propanamide)], the CC50 in data set [1] (setting [7]) came to 100 nM; in data set [2] (setting [8]) it was 140 nM.

For `O=C(NCC[Se]Sc1ccccc1)/C(Cc1ccc(O)c(Br)c1)=N/O` [SSM-15, (E)-3-(3-bromo-4-hydroxyphenyl)-2-(hydroxyimino)-N-(2-((phenylthio)selanyl)ethyl)propanamide], the results for the CC50 in data set [1] (setting [3]) and in data set [2] (setting [4]) were 10 nM and 100 nM, respectively.

In the case of `CC(C)(C)c1ccc(C/C(=N\O)C(=O)NCC[Se][Se]CCNC(=O)/C(Cc2ccc(C(C)(C)C)cc2)=N/O)cc1` [SSM-13, (2E,2′E)-N,N′-(diselanediylbis(ethane-2,1-diyl))bis(3-(4-(tert-butyl)phenyl)-2-(hydroxyimino)propanamide)], the CC50 in data set [1] (setting [5]) stood at 130 nM; in data set [2] (setting [6]), 100 nM.

For the molecule `COc1cc([C@@H]2c3cc4c(cc3[C@@H](O[C@@H]3O[C@@H]5CO[C@@H](C)O[C@H]5[C@H](O)[C@H]3O)[C@H]3COC(=O)[C@H]23)OCO4)cc(OC)c1O` [Etoposide, reference compound], the CC50 was 900 nM in data set [1] (setting [7]), 610 nM in data set [1] (setting [3]), 420 nM in data set [2] (setting [8]) and 710 nM in data set [2] (setting [4]).

Regarding `O=C(NCC[Se][Se]CCNC(=O)/C(Cc1ccc(Br)cc1)=N/O)/C(Cc1ccc(Br)cc1)=N/O` [SSM-7, (2E,2′E)-N,N′-(diselanediylbis(ethane-2,1-diyl))bis(3-(4-bromophenyl)-2-(hydroxyimino)propanamide)], the CC50 in data set [1] (setting [7]) stood at 300 nM; in data set [2] (setting [8]), 320 nM.

Regarding `O=C(NCC[Se]Sc1ccccc1)/C(Cc1ccc(Cl)c(Cl)c1)=N/O` [SSM-23, (E)-3-(3,4-dichlorophenyl)-2-(hydroxyimino)-N-(2-((phenylthio)selanyl)ethyl)propanamide], the CC50 in data set [1] (setting [5]) was determined as 50 nM; in data set [2] (setting [6]), 280 nM.

As to `O=C(NCCSSCCNC(=O)/C(Cc1ccc(O)c(Br)c1)=N/O)/C(Cc1ccc(O)c(Br)c1)=N/O` [Psammaplin A], the CC50 in data set [1] (Table 2, SRB, concentration for 50% viability, read-out: HCT116-LC50) came to 610 nM; in data set [1] (Table 3, SRB, concentration for 50% viability, read-out: HCT116-LC50), 610 nM; in data set [2] (Table 2, SRB, concentration for 50% viability, read-out: A549-LC50) it was 1760 nM; in data set [2] (Table 3, SRB, concentration for 50% viability, read-out: A549-LC50) it was 1760 nM.

These data come from patent publication US11629123B2, “Selenopsammaplin A and derivative thereof, preparation method therefor, and composition for preventing and treating cancer, containing same as active ingredients” (priority 2017, dated 2023).
